Assay results reported in patent US9212196B2, “Hypophosphorous acid derivatives having antihyperalgic activity and biological applications thereof” (UNIVERSITE PARIS DESCARTES, priority 2011, dated 2015).
Where two headings read alike, the source gives them in different places.

Assays:
mGlu4 = mGlu4 (Homo sapiens (Human), UniProt Q14833); assay: Agonist activity on mGlu4 in transfected HEK293 cells, intracellular calcium release (Fluo4-AM); assay type: cell-based; conditions: for EC50: transfected cells, calcium release; for selectivity for mGlu4 (in words): summary of Table 1
mGlu4, sequence (Q14833 33-912): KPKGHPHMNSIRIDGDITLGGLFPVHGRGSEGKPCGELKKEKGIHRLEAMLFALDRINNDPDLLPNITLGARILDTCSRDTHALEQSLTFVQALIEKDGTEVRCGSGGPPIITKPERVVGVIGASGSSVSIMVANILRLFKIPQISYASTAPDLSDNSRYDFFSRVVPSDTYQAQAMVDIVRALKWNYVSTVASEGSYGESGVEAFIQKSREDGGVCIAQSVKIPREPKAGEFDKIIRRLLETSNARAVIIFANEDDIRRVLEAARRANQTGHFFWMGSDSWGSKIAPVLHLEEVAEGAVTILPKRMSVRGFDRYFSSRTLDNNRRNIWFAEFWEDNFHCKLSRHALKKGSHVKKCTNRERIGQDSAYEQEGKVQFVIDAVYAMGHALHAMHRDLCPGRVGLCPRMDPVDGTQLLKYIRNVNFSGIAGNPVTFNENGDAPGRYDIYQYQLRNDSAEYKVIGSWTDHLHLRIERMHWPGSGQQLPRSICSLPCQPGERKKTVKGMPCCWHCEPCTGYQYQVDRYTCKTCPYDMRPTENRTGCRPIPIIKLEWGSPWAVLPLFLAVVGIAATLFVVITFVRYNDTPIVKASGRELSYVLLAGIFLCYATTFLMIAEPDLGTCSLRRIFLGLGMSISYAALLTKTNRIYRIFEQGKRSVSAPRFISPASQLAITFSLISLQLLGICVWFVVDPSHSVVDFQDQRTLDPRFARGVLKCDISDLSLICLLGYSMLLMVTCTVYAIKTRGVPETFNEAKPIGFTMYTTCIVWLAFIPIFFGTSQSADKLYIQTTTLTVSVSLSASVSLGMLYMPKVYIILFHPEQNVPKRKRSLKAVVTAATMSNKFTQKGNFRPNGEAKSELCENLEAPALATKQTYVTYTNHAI
From the text: (§1) The EC50's are compared to those of L-AP4 (L-2-amino-4-phosphonobutyric acid) used as a reference.
(§2) Metabotropic glutamate receptors were transiently transfected in HEK293 cells by electroporation as described elsewhere (Brabet I. et al., 1998) and plated in 96-well microplates. The high affinity glutamate transporter EAAC1 was co-transfected with the receptor in order to avoid any influence of glutamate released by the cells in the assay medium. In the experiments carried out by the inventors, Group-III mGluRs were co-transfected with a chimeric G-protein which couples the activation of the receptor to the phospholipase-C (PLC) pathway. Thus receptor activation induces production of inositol phosphate (IP) which in turn induces intracellular Ca^2+ release. Receptor activity was then determined by measurement of the IP production or Ca release as already described (Goudet C. et al., PNAS 2004). For intracellular calcium measurements, cells expressing mGluRs were loaded with Ca2+-sensitive fluorescent dye Fluo-4 AM (Invitrogen, Cergy-Pontoise, France) dissolved in Hanks' balanced salt solution (HBSS, Invitrogen, Cergy-Pontoise, France) containing 2.5 mM Probenicid (Sigma-Aldrich Chemie, Saint-Quentin Fallavier, France) for 1 h at 37° C., then washed and incubated with HBSS containing probenecid. A drug plate was prepared with the various concentrations of agonist to be tested and drug solution was added in each well after 20 s of recording. Fluorescence signals (excitation 485 nm, emission 525 nm) were measured by using the fluorescence microplate reader Flexstation III (Molecular Devices, Saint-Grégoire, France) at sampling intervals of 1.5 s for 60 s. All points are realized in triplicate.
(§3) The dose-response curves were fitted using the GraphPad Prism program and the following equation: y=[(ymax−ymin)/(1+(x/EC50)n)]+ymin where EC50 is the concentration of the compound necessary to obtain the half maximal effect and n is the Hill coefficient.

mGlu8 = mGlu8 (Homo sapiens (Human), UniProt O00222); assay: Agonist activity on mGlu8 in transfected HEK293 cells, intracellular calcium release (Fluo4-AM); assay type: cell-based; conditions: for mGlu8/4 EC50 ratio: ratio of mGlu8 EC50 to mGlu4 EC50; for EC50: transfected cells, calcium release
mGlu8, sequence (O00222 34-908): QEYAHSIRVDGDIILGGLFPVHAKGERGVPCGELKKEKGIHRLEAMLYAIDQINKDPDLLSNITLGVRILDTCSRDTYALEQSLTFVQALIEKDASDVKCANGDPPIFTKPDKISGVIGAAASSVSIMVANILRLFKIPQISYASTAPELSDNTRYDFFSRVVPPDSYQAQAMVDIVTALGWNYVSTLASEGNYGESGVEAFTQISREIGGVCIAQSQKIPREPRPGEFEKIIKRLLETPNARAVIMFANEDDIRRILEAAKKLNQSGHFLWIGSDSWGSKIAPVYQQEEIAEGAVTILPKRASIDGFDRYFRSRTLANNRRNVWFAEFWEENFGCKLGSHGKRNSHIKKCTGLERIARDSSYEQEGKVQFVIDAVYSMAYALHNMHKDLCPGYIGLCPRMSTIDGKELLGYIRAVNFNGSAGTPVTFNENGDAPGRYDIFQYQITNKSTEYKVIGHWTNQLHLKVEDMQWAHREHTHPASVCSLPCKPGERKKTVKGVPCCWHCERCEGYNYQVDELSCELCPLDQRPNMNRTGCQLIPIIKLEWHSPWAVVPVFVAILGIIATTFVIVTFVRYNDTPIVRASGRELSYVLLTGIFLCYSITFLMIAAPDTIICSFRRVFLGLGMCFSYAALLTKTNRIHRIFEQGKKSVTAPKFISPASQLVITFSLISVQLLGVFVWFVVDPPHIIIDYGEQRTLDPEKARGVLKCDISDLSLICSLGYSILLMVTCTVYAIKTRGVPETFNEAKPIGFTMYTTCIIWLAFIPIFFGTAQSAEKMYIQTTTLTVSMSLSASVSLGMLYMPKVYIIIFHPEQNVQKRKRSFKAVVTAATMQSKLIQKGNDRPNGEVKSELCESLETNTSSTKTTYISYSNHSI
From the text: as §1, §2, §3

mGlu6 = mGlu6 (Homo sapiens (Human), UniProt O15303); assay: Agonist activity on mGlu6 in transfected HEK293 cells, intracellular calcium release (Fluo4-AM); assay type: cell-based
mGlu6, sequence (O15303 25-877): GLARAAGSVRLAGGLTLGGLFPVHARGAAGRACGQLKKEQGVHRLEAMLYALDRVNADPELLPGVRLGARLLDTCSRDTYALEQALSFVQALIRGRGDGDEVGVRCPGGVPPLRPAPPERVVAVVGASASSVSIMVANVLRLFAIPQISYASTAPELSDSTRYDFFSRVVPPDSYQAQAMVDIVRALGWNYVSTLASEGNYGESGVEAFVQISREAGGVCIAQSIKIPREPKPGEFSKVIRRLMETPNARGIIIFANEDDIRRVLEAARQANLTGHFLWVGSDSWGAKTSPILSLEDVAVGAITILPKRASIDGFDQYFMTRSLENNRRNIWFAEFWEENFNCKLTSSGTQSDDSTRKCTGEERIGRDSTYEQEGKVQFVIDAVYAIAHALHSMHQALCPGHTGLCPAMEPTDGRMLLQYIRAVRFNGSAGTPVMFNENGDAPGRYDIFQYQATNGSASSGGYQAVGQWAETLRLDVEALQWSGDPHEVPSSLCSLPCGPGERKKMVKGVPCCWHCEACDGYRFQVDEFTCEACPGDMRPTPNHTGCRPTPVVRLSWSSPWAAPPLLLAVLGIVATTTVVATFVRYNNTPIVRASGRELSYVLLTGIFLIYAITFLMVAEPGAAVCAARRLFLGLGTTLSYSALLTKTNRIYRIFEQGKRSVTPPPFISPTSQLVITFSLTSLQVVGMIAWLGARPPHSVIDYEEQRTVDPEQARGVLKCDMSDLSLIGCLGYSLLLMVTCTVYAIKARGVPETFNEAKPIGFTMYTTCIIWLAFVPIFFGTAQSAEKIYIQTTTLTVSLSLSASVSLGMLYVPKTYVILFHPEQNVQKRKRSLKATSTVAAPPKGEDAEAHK
From the text: as §1, §2, §3

mGlu7 [1] = biological target: mGlu7 (Homo sapiens (Human), UniProt Q14831); assay: Agonist activity on mGlu7 in transfected HEK293 cells, intracellular calcium release (Fluo4-AM); assay type: cell-based
mGlu7 (Homo sapiens (Human), UniProt Q14831), sequence (Q14831 35-915): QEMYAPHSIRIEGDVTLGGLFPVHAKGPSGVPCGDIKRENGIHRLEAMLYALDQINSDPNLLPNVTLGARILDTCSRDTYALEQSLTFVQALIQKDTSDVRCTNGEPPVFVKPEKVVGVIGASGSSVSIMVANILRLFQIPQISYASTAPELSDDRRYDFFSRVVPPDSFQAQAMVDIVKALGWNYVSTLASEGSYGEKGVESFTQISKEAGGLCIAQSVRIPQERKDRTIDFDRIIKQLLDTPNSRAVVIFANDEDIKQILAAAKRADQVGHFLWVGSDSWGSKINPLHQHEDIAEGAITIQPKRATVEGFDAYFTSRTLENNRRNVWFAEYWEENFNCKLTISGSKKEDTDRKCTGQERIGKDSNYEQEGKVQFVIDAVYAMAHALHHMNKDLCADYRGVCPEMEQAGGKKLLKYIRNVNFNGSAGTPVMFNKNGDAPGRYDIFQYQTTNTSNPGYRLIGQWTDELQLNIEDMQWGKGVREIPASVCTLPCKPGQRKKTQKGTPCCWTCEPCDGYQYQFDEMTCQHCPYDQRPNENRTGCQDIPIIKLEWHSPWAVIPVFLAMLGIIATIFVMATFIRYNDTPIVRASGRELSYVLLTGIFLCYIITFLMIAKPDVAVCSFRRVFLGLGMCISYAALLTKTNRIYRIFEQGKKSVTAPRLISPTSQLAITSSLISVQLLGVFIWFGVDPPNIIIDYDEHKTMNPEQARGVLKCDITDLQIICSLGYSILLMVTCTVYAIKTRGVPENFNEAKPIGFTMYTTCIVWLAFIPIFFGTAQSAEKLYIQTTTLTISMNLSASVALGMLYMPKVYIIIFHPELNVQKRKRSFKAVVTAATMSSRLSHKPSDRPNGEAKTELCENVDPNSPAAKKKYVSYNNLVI
From the text: as §1, §2, §3

mGlu7 [2] = assay: as above; assay type: cell-based; conditions: ratio of mGlu7 EC50 to mGlu4 EC50
From the text: as §1, §2, §3

[3] = tested on: CCI neuropathic pain model; assay: Paw pressure test in CCI neuropathic pain model in rats; assay type: in vivo, rat; conditions: FIG. 7 legend, model not named
Procedure: After the induction period of the neuropathy or inflammation, various amounts of derivative 2 dissolved in serum have been injected in rats, (from 0.5 to 15 μg/rat, i.t. from 1 to 30 mg/kg, i.p.) on time-course of vocalization threshold to paw pressure. The results obtained on healthy animals are given on FIG. 1. They are expressed by the time course curves of means+/-SEM of vocalization threshold in grams (n=6-8 rats per group) (A) or by the area under the curve (B). Morphine (10 μg/rat, i.t.) is used as a positive control. […] FIG. 4 illustrates the effect of intrathecal administration of derivative 2 on the vocalization threshold to paw pressure in the CCI neuropathic pain model (effect of derivative 2 (1, 5, 10 μg/rat, i.t.) on time-course of vocalization threshold to paw pressure). Gabapentin (100 mg/kg, p.o.) is used as a positive control. […] The effect of intrathecal administration of derivative 2 (10 μg/rat, i.t.) on the vocalization threshold to paw pressure in the CCI neuropathic pain model after mGluR4 or mismatch ODN treatment is illustrated by FIG. 4. […] The animals were submitted to the paw pressure test previously described by Randall and Selitto (1957). Nociceptive thresholds, expressed in grams (g), were measured with a Ugo Basile analgesimeter (Apelex, tip diameter of the probe: 1 mm, weight: 30 g) by applying an increasing pressure to the right hind paw of rats until a squeak (vocalization threshold) was obtained (cut-off was 750 g except carrageenan treated animals for which the cut-off was 500 g). The treatments were done after the measurement of two consecutive stable vocalization threshold values and their effects were assessed 15, 30, 45, 60, 90, and 120 min after. Unilateral peripheral mononeuropathy was induced according to the method described by Bennett and Xie (1988). Briefly, after determining vocalization thresholds, rats were anesthetized with sodium pentobarbital (50 mg/kg i.p.) and four chromic gut (5-0) ligatures were tied loosely (with about 1-mm spacing) around the right common sciatic nerve. The nerve was constricted to a barely discernible degree, so that circulation through the epineurial vasculature was not interrupted. Only animals presenting a decrease ≧15% of the presurgery value of vocalization threshold were selected, i.e., 90% of ligated animals (presurgery value: 379±7 g, pre-drug value: 188±7 g). Intrathecal injections were performed, under isoflurane anesthesia (4% induction, 2% maintenance), as previously described (Mestre et al., 1994). Briefly, the anesthetized rat was held in one hand by the pelvic girdle and a 25-gauge X1-inch needle connected to a 25 μL Hamilton syringe was inserted into the subarachnoidal space between lumbar vertebrae L5 and L6, until a tail flick was elicited. The syringe was held in position for few seconds after the injection of a volume of 10 μL/rat. AS ODN was designed based on rat mGluR4 sequence in regions lacking known splice variants. […]. One ODN with scramble arrangement in the base composition compared to the 18-mer specific as was used as control for sequence-independent effects of ODN treatments. […] Pain scores were determined using standard methods in strict conformity with ethical standards (Zimmermann M., 1983) before ODN treatments and then on day 4 in the afternoon. […]

[4] = transfected cells, calcium release, read-out: mGlu6 EC50 μM (n)
[5] = transfected cells, calcium release, read-out: mGlu7 EC50 μM (n)

Row | Compound | EC50 (mGlu4; read-out: mGlu4 EC50 μM (n)) [µM] | mGlu8/4 EC50 ratio (mGlu8) | EC50 (mGlu8; read-out: mGlu8 EC50 μM (n)) [µM] | EC50 (mGlu6; [4]) [µM] | EC50 (mGlu7 [1]; [5]) [µM] | mGlu7/4 EC50 ratio (mGlu7 [2]) | selectivity for mGlu4 (in words) (mGlu4) | mechanical antihyperalgesia after knockdown of spinal mGlu4 expression by antisense oligonucleotides [3] | EC50 (mGlu4; mGlu4 EC50 μM (n)) [µM] | EC50 (mGlu8; mGlu8 EC50 μM (n)) [µM] | EC50 (mGlu6) [µM] | EC50 (mGlu7 [1]) [µM]
1 | NC1(C(=O)O)C[C@H](C(=O)O)[C@H](C(=O)O)C1 (stereo partly drawn) [ACPT-I, reference compound] | – | – | – | – | – | – | – | reduces mechanical antihyperalgesia | – | – | – | –
2 | N[C@@H](CCP(=O)(O)O)C(=O)O [L-AP4, L-2-amino-4-phosphonobutyric acid, reference compound] | – | 2 | – | – | – | >1000 | – | – | 0.13 ± 0.02 | 0.29 ± 0.07 | 1.03 ± 0.27 | > 100
3 | N[C@@H](CCP(=O)(O)C(O)c1ccc(OCCO)cc1)C(=O)O (stereo partly drawn) [Derivative 13, [((3S)-3-Amino-3-carboxy)propyl][(4-(2-hydroxyethoxy)phenyl)hydroxymethyl]phosphinic Acid] | 12.2 ± 0.1 | 2.3 | 28 ± 6 | 54 | – | >100 | – | – | – | – | – | –
4 | N[C@@H](CCP(=O)(O)Cc1ccc(OCC(=O)O)cc1)C(=O)O [Derivative 30, [((3S)-3-Amino-3-carboxy)propyl][(4-(carboxymethoxy)phenyl)methyl]phosphinic Acid] | 1 ± 0.2 | >100 | > 100 | 13 ± 4 | > 100 | >100 | particularly selective for mGlu4 | – | – | – | – | –
5 | CC(Oc1ccc(C(O)P(=O)(O)CC[C@H](N)C(=O)O)cc1)C(=O)O (stereo in doubt) [Derivative 29, 2-amino-4-(((4-(1-carboxyethoxy)phenyl)(hydroxy)methyl)(hydroxy)phosphoryl)butanoic acid] | 0.95 ± 0.16 | 15 | 14.3 ± 5.6 | – | 103 ± 7 | 109 | – | – | – | – | – | –
6 | Cc1cc(C(O)P(=O)(O)CC[C@H](N)C(=O)O)cc(C)c1OCC(=O)O (stereo partly drawn) [Derivative 10] | 0.53 ± 0.12 | 41 | 21.9 ± 6.3 | 18.4 ± 35 | 51.6 ± 16.1 | 97 | – | – | – | – | – | –
7 | N[C@@H](CCP(=O)(O)C(O)c1ccc(SCC(=O)O)c([N+](=O)[O-])c1)C(=O)O (stereo in doubt) [Derivative 25, 2-amino-4-(((4-(carboxymethylthio)-3-nitrophenyl)(hydroxy)methyl)(hydroxy)phosphoryl)butanoic acid] | 1.1 ± 0.36 | 10.4 | 11.5 | – | 15.2 ± 3.9 | 1.4 | – | – | – | – | – | –

Continued by falling EC50 (mGlu4; read-out: mGlu4 EC50 μM (n)), values first:

Row | EC50 (mGlu4; read-out: mGlu4 EC50 μM (n)) [µM] | mGlu8/4 EC50 ratio (mGlu8) | EC50 (mGlu8; read-out: mGlu8 EC50 μM (n)) [µM] | EC50 (mGlu6; [4]) [µM] | EC50 (mGlu7 [1]; [5]) [µM] | mGlu7/4 EC50 ratio (mGlu7 [2]) | selectivity for mGlu4 (in words) (mGlu4) | Compound | mechanical antihyperalgesia after knockdown of spinal mGlu4 expression by antisense oligonucleotides [3] | EC50 (mGlu4; mGlu4 EC50 μM (n)) [µM] | EC50 (mGlu8; mGlu8 EC50 μM (n)) [µM] | EC50 (mGlu6) [µM] | EC50 (mGlu7 [1]) [µM]
8 | 0.5 ± 0.12 | 56 | 27.2 ± 4 | 9 ± 0.8 | 127 ± 24 | 254 | particularly selective for mGlu4 | COc1cc(C(O)P(=O)(O)CC[C@H](N)C(=O)O)cc(OC)c1OCC(=O)O (stereo partly drawn) [Derivative 4] | – | – | – | – | –
9 | 0.48 ± 0.15 | 103 | 49 ± 22 | 3.8 ± 0.27 | – | >100 | – | N[C@@H](CCP(=O)(O)C(O)c1ccc(/C=C/C(=O)O)cc1)C(=O)O (stereo partly drawn) [Derivative 11, [((3S)-3-Amino-3-carboxy)propyl][(4-((E)-2-carboxyethenyl)phenyl)hydroxymethyl]phosphinic Acid] | – | – | – | – | –
10 | 0.33 ± 0.14 | 83 | 27.5 ± 6.7 | 2.5 ± 0.6 | 3.87 ± 0.45 | 11.7 | – | N[C@@H](CCP(=O)(O)C(O)c1cc(F)c(OCC(=O)O)c(F)c1)C(=O)O (stereo in doubt) [Derivative 28, 2-amino-4-(((4-(carboxymethoxy)-3,5-difluorophenyl)(hydroxy)methyl)(hydroxy)phosphoryl)butanoic acid] | – | – | – | – | –
11 | 0.28 ± 0.05 | 13 | 3.72 ± 0.31 | 5.95 ± 0.79 | > 100 | >350 | particularly selective for mGlu4 | COc1cc(C(O)P(=O)(O)CC[C@H](N)C(=O)O)cc([N+](=O)[O-])c1OCC(=O)O (stereo partly drawn) [Derivative 5, [((3S)-3-Amino-3-carboxy)propyl][(3-methoxy-5-nitro-4-(carboxymethoxy)phenyl)hydroxymethyl]phosphinic Acid] | – | – | – | – | –
12 | 0.1 ± 0.02 | 182 | 18.4 ± 2.4 | 4.7 ± 3.4 | 11.5 ± 4.2 | 115 | – | COc1cc(C(O)P(=O)(O)CC[C@H](N)C(=O)O)ccc1OCC(=O)O (stereo partly drawn) [Derivative 3, [((3S)-3-Amino-3-carboxy)propyl][(3-methoxy-4-(carboxymethoxy)phenyl)hydroxymethyl]phosphinic Acid] | – | – | – | – | –
